Our source for the IC50 values is patent publication US20240383954A1, “PEPTIDE INHIBITORS OF INTERLEUKIN-23 RECEPTOR AND THEIR USE TO TREAT INFLAMMATORY DISEASES” (Janssen Biotech, Inc., priority 2020, published 2024).

The structures appear in SMILES notation. Positions of bridges follow the written chain, without caps; N, C: chain ends. Non-standard residues stand in square brackets, D forms with d. Residues, ends and D or L forms follow the SMILES beside them. *: point of attachment. Trp(7-Me) = Cc1cccc2c(C[C@H](N)C(=O)O)c[nH]c12; 2Nal = N[C@@H](Cc1ccc2ccccc2c1)C(=O)O; AEF = NCCOc1ccc(C[C@H](N)C(=O)O)cc1; αMeF = C[C@](N)(Cc1ccccc1)C(=O)O; Pen = CC(C)(S)[C@H](N)C(=O)O; αMeC = C[C@](N)(CS)C(=O)O; Ac5c = NC1(C(=O)O)CCCC1; Thp = NC1(C(=O)O)CCOCC1; Ac3c = NC1(C(=O)O)CC1; NHBn = c1ccc(CN*)cc1; Propionyl = CCC(=O)*

The target in the assay is IL-23R (Homo sapiens, UniProt Q5VWK5). In words: cell-based. The conditions noted are these: PBMC pSTAT3 IC50 (nM), PBMCs from healthy donors, IL-23 5 ng/mL, 30 minutes, phosphorylated STAT3.
IL-23R, sequence (Q5VWK5 24-629): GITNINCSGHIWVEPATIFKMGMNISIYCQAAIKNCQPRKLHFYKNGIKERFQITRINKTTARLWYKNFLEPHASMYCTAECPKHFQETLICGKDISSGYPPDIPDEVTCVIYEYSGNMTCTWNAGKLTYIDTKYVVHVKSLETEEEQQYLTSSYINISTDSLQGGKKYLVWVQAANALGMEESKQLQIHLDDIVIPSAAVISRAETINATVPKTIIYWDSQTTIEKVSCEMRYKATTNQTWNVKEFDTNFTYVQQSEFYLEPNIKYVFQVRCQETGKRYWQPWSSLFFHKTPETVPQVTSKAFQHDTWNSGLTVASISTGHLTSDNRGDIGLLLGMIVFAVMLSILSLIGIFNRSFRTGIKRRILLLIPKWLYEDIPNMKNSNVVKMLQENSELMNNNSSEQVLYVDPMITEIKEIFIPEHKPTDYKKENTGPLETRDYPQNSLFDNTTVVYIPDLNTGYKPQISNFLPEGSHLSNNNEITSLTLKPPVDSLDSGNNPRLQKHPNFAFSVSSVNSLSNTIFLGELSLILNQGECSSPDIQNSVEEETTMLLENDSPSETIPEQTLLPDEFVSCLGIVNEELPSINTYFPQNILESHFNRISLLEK

Usually IC50 stands for the point on the concentration scale where inhibition reaches its midpoint. A lower IC50 goes with greater potency in that assay.
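Also: cryopreserved PBMCs stimulated at 37 °C in 5% CO2, then lysed, with phosphorylated STAT3 quantified in lysates using a phospho-STAT panel kit.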

`CC(=O)NCCCC[C@@H]1NC(=O)[C@H](Cc2c[nH]c3c(C)cccc23)NC(=O)[C@H]([C@@H](C)O)NC(=O)[C@H](CC(N)=O)NC(=O)[C@@H](NC(C)=O)C(C)(C)SSC(C)(C)[C@@H](C(=O)N[C@@H](Cc2ccc(OCCN)cc2)C(=O)N[C@@H](Cc2ccc3ccccc3c2)C(=O)N[C@@](C)(CCCCN)C(=O)N[C@@H](CCCCNC(C)=O)C(=O)N[C@@H](CC(N)=O)C(=O)N[C@@](C)(Cc2ccccc2)C(N)=O)NC1=O` [Compound 76, Ac-[Pen]-N-T-[W(7-Me)]-[Lys(Ac)]-[Pen]-Phe[4-(2-aminoethoxy)]-[2-Nal]-[a-MeLys]-[Lys(Ac)]-N-[a-MePhe]-NH2] had an IC50 of 11 nM.
The result for `CC(=O)NCCCC[C@@H]1NC(=O)[C@H](Cc2c[nH]c3c(C)cccc23)NC(=O)[C@H]([C@@H](C)O)NC(=O)[C@H](CC(N)=O)NC(=O)[C@@H](N)C(C)(C)SSC(C)(C)[C@@H](C(=O)N[C@@H](Cc2ccc(OCCNC(=O)OC(C)(C)C)cc2)C(=O)N[C@@H](Cc2ccc3ccccc3c2)C(=O)N[C@@](C)(CCCCNC(=O)OC(C)(C)C)C(=O)N[C@@H](CCCCNC(C)=O)C(=O)N[C@@H](CC(N)=O)C(=O)N[C@@](C)(Cc2ccccc2)C(N)=O)NC1=O` [Compound 304, NH2--Pen-N-T-7MeW-K(Ac)-Pen-AEF(Boc)-2Nal-aMeK(Boc)-K(Ac)-N-aMePhe-CONH2] reads 28 nM.
The result for `CC(=O)N[C@H](CCCNC(=N)N)C(=O)N[C@@H]1C(=O)N[C@@H](CC(N)=O)C(=O)N[C@@H]([C@@H](C)O)C(=O)N[C@@H](Cc2c[nH]c3c(C)cccc23)C(=O)N[C@@H](CCC(N)=O)C(=O)N[C@H](C(=O)N[C@@H](Cc2ccc(OCCN)cc2)C(=O)N[C@@H](Cc2ccc3ccccc3c2)C(=O)NC2(C(=O)N[C@@H](CCC(=O)O)C(=O)N[C@@H](CC(N)=O)C(=O)N[C@@](C)(Cc3ccccc3)C(N)=O)CCOCC2)C(C)(C)SSC1(C)C` [Compound 91, Ac-[(D)Arg]-[Pen]-N-T-[W(7-Me)]-Q-[Pen]-Phe[4-(2-aminoethoxy)]-[2-Nal]-[THP]-E-N-[a-MePhe]-NH2] (Ac-[dR][Pen]NT[Trp(7-Me)]Q[Pen][AEF][2Nal][Thp]EN[αMeF]-NH2; disulfide 2-7) reads 4.1 nM; that for `COc1ccc(C[C@H](NC(=O)[C@@H]2CSCC[C@H](NC(=O)[C@@H](CCCNC(=N)N)NC(=O)Cn3cc(CCCF)nn3)C(=O)N[C@@H](CCC(N)=O)C(=O)N[C@@H]([C@@H](C)O)C(=O)N[C@@H](Cc3c[nH]c4ccccc34)C(=O)N[C@@H](CCC(N)=O)C(=O)N2)C(=O)N[C@@H](Cc2ccc3ccccc3c2)C(=O)NC2(C(=O)N[C@@H](CCC(=O)O)C(=O)N[C@@H](CC(N)=O)C(=O)NC3(C(N)=O)CCOCC3)CCOCC2)cc1` [Compound 25, FPrpTriazoleMe_Acid-[(D)Arg]-[Abu]-Q-T-W-Q-[Cys]-[Phe(4-OMe)]-[2-Nal]-[THP]-E-N-[THP]-NH2], 21 nM; that for `CCC(=O)N[C@H](CCCNC(=N)N)C(=O)N[C@@H]1C(=O)N[C@@H](CCC(N)=O)C(=O)N[C@@H]([C@@H](C)O)C(=O)N[C@@H](Cc2c[nH]c3ccccc23)C(=O)N[C@@H](CCC(N)=O)C(=O)N[C@H](C(=O)N[C@@H](Cc2ccc(OCCN)cc2)C(=O)N[C@@H](Cc2ccc3ccccc3c2)C(=O)NC2(C(=O)N[C@@H](CCC(=O)O)C(=O)N[C@@H](CC(N)=O)C(=O)NC3(C(N)=O)CCOCC3)CCOCC2)C(C)(C)SSC1(C)C` [Compound 10, [Propionic_acid]-[(D)Arg]-[Pen]-Q-T-W-Q-[Pen]-Phe[4-(2-aminoethoxy)]-[2-Nal]-[THP]-E-N-[THP]-NH2] (Propionyl-[dR][Pen]QTWQ[Pen][AEF][2Nal][Thp]EN[Thp]-NH2; disulfide 2-7), 4.6 nM.
The result for `CC(=O)NCCCC[C@@H]1NC(=O)[C@H](Cc2c[nH]c3c(C)cccc23)NC(=O)[C@H]([C@@H](C)O)NC(=O)[C@H](CC(N)=O)NC(=O)[C@@H](NC(=O)[C@@H](CCCNC(=N)N)NC(C)=O)CSSC[C@@](C)(C(=O)N[C@@H](Cc2ccc(OCCN)cc2)C(=O)N[C@@H](Cc2ccc3ccccc3c2)C(=O)NC2(C(=O)N[C@@H](CCC(=O)O)C(=O)N[C@@H](CC(N)=O)C(=O)NC3(C(N)=O)CCOCC3)CC2)NC1=O` [Compound 310, MeCO-r-C-N-T-7MeW-K(Ac)- aMeC-AEF-2Nal-Acpx-E-N-THP-CONH2] (Ac-[dR]CNT[Trp(7-Me)]K(Ac)[αMeC][AEF][2Nal][Ac3c]EN[Thp]-NH2; disulfide 2-7) reads 9.9 nM; that for `CC(=O)NCCCC[C@H](NC(=O)[C@](C)(CCCCN)NC(=O)[C@H](Cc1ccc2ccccc2c1)NC(=O)[C@H](Cc1ccc(OCCN)cc1)NC(=O)[C@H]1NC(=O)[C@H](CCC(N)=O)NC(=O)[C@H](Cc2c[nH]c3c(C)cccc23)NC(=O)[C@H]([C@@H](C)O)NC(=O)[C@H](CC(N)=O)NC(=O)[C@@H](NC(C)=O)C(C)(C)SSC1(C)C)C(=O)N[C@@H](CC(N)=O)C(=O)NC1(C(N)=O)CCOCC1` [Compound 87, Ac-[Pen]-N-T-[W(7-Me)]-Q-[Pen]-Phe[4-(2-aminoethoxy)]-[2-Nal]-[a-MeLys]-[Lys(Ac)]-N-[THP]-NH2], 3.6 nM.
For `CC(=O)NCCCC[C@@H]1NC(=O)[C@H](Cc2c[nH]c3c(C)cccc23)NC(=O)[C@H]([C@@H](C)O)NC(=O)[C@H](CC(N)=O)NC(=O)[C@@H](NC(C)=O)C(C)(C)SSC(C)(C)[C@@H](C(=O)N[C@@H](Cc2ccc(OCCN)cc2)C(=O)N[C@@H](Cc2ccc3ccccc3c2)C(=O)N[C@@](C)(CCCCN)C(=O)N[C@@H](CCCCNC(C)=O)C(=O)N[C@@H](CC(N)=O)C(=O)N[C@@](C)(Cc2ccc(O)cc2)C(N)=O)NC1=O` [Compound 151, Ac-[Pen]-N-T-[W(7-Me)]-[Lys(Ac)]-[Pen]-Phe[4-(2-aminoethoxy)]-[2-Nal]-[a-MeLys]-[Lys(Ac)]-N-[aMeTyr]-NH2], the midpoint of inhibition, the IC50, lay at 5.7 nM.
For `CC(=O)NCCCC[C@@H]1NC(=O)[C@H](Cc2c[nH]c3c(C)cccc23)NC(=O)[C@H]([C@@H](C)O)NC(=O)[C@H](CC(N)=O)NC(=O)[C@@H](NC(=O)[C@@H](CCCNC(=N)N)NC(C)=O)C(C)(C)SSC(C)(C)[C@@H](C(=O)N[C@@H](Cc2ccc(OCCN)cc2)C(=O)N[C@@H](Cc2ccc3ccccc3c2)C(=O)NC2(C(=O)N[C@@H](CCC(=O)O)C(=O)N[C@@H](CC(N)=O)C(=O)NC3(C(N)=O)CCOCC3)CCCC2)NC1=O` [Compound 101, Ac-[(D)Arg]-[Pen]-N-T-[W(7-Me)]-[Lys(Ac)]-[Pen]-Phe[4-(2-aminoethoxy)]-[2-Nal]-[Acvc]-E-N-[THP]-NH2] (Ac-[dR][Pen]NT[Trp(7-Me)]K(Ac)[Pen][AEF][2Nal][Ac5c]EN[Thp]-NH2; disulfide 2-7) the value was 0.74 nM; for `CC(=O)N[C@H](CCCNC(=N)N)C(=O)N[C@@H]1C(=O)N[C@@H](CCC(N)=O)C(=O)N[C@@H]([C@@H](C)O)C(=O)N[C@@H](Cc2c[nH]c3ccccc23)C(=O)N[C@@H](CCC(N)=O)C(=O)N[C@H](C(=O)N[C@@H](Cc2ccc(OCCN)cc2)C(=O)N[C@@H](Cc2ccc3ccccc3c2)C(=O)NC2(C(=O)N[C@@H](CCC(=O)O)C(=O)N[C@@H](CC(N)=O)C(=O)N[C@@H](CC(=O)NCc3ccccc3)C(N)=O)CCOCC2)C(C)(C)SSC1(C)C` [Compound 110, Ac-[(D)Arg]-[Pen]-Q-T-W-Q-[Pen]-Phe[4-(2-aminoethoxy)]-[2-Nal]-[THP]-E-N-[(N-benzyl)Asn]-NH2] (Ac-[dR][Pen]QTWQ[Pen][AEF][2Nal][Thp]END(NHBn)-NH2; disulfide 2-7), 700 nM.
For `COc1ccc(C[C@@H](NC(=O)[C@H](CC(N)=O)NC(=O)[C@](C)(CCC(=O)O)NC(=O)C2(NC(=O)[C@H](Cc3ccc4ccccc4c3)NC(=O)[C@H](Cc3ccc(OCCN)cc3)NC(=O)[C@@H]3CSCC[C@H](NC(=O)[C@@H](CCCNC(=N)N)NC(C)=O)C(=O)N[C@@H](CCC(N)=O)C(=O)N[C@@H]([C@@H](C)O)C(=O)N[C@@H](Cc4c[nH]c5ccccc45)C(=O)N[C@@H](CCC(N)=O)C(=O)N3)CCOCC2)C(N)=O)cc1OC` [Compound 79, Ac-[(D)Arg]-[Abu]-Q-T-W-Q-[Cys]-Phe[4-(2-aminoethoxy)]-[2-Nal]-[THP]-[aMeGlu]-N-[(D)Phe(3,4-diOMe)]-NH2] the value was 25 nM.
For `CC(=O)NCCCC[C@H](NC(=O)[C@](C)(CCCCN)NC(=O)[C@H](Cc1ccc2ccccc2c1)NC(=O)[C@H](Cc1ccc(OCCN)cc1)NC(=O)[C@]1(C)CSSC[C@H](NC(C)=O)C(=O)N[C@@H](CC(N)=O)C(=O)N[C@@H]([C@@H](C)O)C(=O)N[C@@H](Cc2c[nH]c3c(C)cccc23)C(=O)N[C@@H](CCC(N)=O)C(=O)N1)C(=O)N[C@@H](CC(N)=O)C(=O)NC1(C(N)=O)CCOCC1` [Compound 120, Ac-[Cys]-N-T-[W(7-Me)]-Q-[aMeCys]-Phe[4-(2-aminoethoxy)]-[2-Nal]-[a-MeLys]-[Lys(Ac)]-N-[THP]-NH2] the value was 4.9 nM.
The compound `CC(=O)NCCCC[C@H](NC(=O)C1(NC(=O)[C@H](Cc2ccc3ccccc3c2)NC(=O)[C@H](Cc2ccc(OCCN)cc2)NC(=O)[C@H]2NC(=O)[C@H](CCC(N)=O)NC(=O)[C@H](Cc3c[nH]c4ccccc34)NC(=O)[C@H]([C@@H](C)O)NC(=O)[C@H](CCC(N)=O)NC(=O)[C@@H](NC(=O)[C@@H](CCCNC(=N)N)NC(C)=O)C(C)(C)SSC2(C)C)CCOCC1)C(=O)N[C@@H](CC(N)=O)C(=O)N[C@@H](Cc1ccccc1)C(N)=O` [Compound 53, Ac-[(D)Arg]-[Pen]-Q-T-W-Q-[Pen]-Phe[4-(2-aminoethoxy)]-[2-Nal]-[THP]-[Lys(Ac)]-N-F-NH2] (Ac-[dR][Pen]QTWQ[Pen][AEF][2Nal][Thp]K(Ac)NF-NH2; disulfide 2-7) displayed an IC50 of 29 nM.
The result for `CC(=O)NCCCC[C@H](NC(=O)[C@](C)(CCCCN)NC(=O)[C@H](Cc1ccc2ccccc2c1)NC(=O)[C@H](Cc1ccc(OCCN)cc1)NC(=O)[C@]1(C)CSSC[C@H](NC(C)=O)C(=O)N[C@@H](CC(N)=O)C(=O)N[C@@H]([C@@H](C)O)C(=O)N[C@@H](Cc2c[nH]c3c(C)cccc23)C(=O)N[C@@H](CCC(N)=O)C(=O)N1)C(=O)N[C@@H](CC(N)=O)C(=O)N[C@@](C)(Cc1ccccc1)C(N)=O` [Compound 119, Ac-[Cys]-N-T-[W(7-Me)]-Q-[aMeCys]-Phe[4-(2-aminoethoxy)]-[2-Nal]-[a-MeLys]-[Lys(Ac)]-N-[a-MePhe]-NH2] reads 5.3 nM.
